Experimental data published in ChEMBL document CHEMBL1146525, “New triterpenoid alkaloid cholinesterase inhibitors from Buxus hyrcana” (J Nat Prod, 2003).

Test system: not listed separately
Assay: Selectivity ratio of IC50 for electric eel AChE to IC50 for BChE

Q: Which Ratio IC50 does the source give for `C[C@@H]([C@H]1CC[C@@]2(C)[C@@H]3CC[C@H]4C(C)(C)[C@@H](NC(=O)c5ccccc5)CC[C@]4(O)CC3=CC[C@]12C)N(C)C` [N-BENZOYLBUXAHYRCANINE] here?
A: 3.2

Q: Which Ratio IC50 does the source give for `CC(C)C(=O)N[C@H]1CC[C@]2(O)CC3=CC[C@]4(C)[C@@H]([C@H](C)N(C)C)CC[C@@]4(C)[C@@H]3CC[C@H]2C1(C)C` [N-ISOBUTYROYLBUXAHYRCANINE] here?
A: 18.6

Q: With `C/C=C(\C)C(=O)N[C@H]1CC[C@]2(O)CC3=CC[C@]4(C)[C@@H]([C@H](C)N(C)C)CC[C@@]4(C)[C@@H]3CC[C@H]2C1(C)C` [N-TIGLOYLBUXAHYRCANINE] as the compound, how does the Ratio IC50 read?
A: 14.2

Molecular target: Cholinesterase (Homo sapiens, UniProt P06276)
Assay: Inhibition of BChE

Cholinesterase, sequence (P06276 whole entry): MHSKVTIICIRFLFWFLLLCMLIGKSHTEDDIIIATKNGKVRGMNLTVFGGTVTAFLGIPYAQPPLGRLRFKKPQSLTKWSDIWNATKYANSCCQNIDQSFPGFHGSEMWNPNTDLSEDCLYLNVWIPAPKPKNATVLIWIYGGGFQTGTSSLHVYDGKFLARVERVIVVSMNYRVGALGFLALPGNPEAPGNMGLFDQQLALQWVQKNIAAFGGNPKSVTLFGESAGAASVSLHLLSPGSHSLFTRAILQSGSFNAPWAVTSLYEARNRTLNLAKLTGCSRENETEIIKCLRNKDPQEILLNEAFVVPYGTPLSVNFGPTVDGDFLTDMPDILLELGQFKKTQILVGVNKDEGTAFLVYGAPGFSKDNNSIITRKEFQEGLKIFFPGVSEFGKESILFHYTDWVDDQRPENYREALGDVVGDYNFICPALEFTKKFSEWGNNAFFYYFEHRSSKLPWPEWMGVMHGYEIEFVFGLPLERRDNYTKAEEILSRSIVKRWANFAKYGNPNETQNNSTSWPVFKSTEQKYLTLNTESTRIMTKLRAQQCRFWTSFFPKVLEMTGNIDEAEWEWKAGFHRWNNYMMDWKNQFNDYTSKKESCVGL

Q: For `C[C@@H]([C@H]1CC[C@@]2(C)[C@@H]3CC[C@H]4C(C)(C)[C@@H](NC(=O)c5ccccc5)CC[C@]4(O)CC3=CC[C@]12C)N(C)C` [N-BENZOYLBUXAHYRCANINE], which IC50 is on record?
A: 311 µM

Q: With `CC(C)C(=O)N[C@H]1CC[C@]2(O)CC3=CC[C@]4(C)[C@@H]([C@H](C)N(C)C)CC[C@@]4(C)[C@@H]3CC[C@H]2C1(C)C` [N-ISOBUTYROYLBUXAHYRCANINE] as the compound, how does the IC50 read?
A: 53.7 µM

Q: With `C/C=C(\C)C(=O)N[C@H]1CC[C@]2(O)CC3=CC[C@]4(C)[C@@H]([C@H](C)N(C)C)CC[C@@]4(C)[C@@H]3CC[C@H]2C1(C)C` [N-TIGLOYLBUXAHYRCANINE] as the compound, how does the IC50 read?
A: 31.2 µM

Molecular target: Acetylcholinesterase (Electrophorus electricus, UniProt O42275)
Assay: Inhibition of electric eel AChE by modified Ellman method

Acetylcholinesterase, sequence (O42275 whole entry): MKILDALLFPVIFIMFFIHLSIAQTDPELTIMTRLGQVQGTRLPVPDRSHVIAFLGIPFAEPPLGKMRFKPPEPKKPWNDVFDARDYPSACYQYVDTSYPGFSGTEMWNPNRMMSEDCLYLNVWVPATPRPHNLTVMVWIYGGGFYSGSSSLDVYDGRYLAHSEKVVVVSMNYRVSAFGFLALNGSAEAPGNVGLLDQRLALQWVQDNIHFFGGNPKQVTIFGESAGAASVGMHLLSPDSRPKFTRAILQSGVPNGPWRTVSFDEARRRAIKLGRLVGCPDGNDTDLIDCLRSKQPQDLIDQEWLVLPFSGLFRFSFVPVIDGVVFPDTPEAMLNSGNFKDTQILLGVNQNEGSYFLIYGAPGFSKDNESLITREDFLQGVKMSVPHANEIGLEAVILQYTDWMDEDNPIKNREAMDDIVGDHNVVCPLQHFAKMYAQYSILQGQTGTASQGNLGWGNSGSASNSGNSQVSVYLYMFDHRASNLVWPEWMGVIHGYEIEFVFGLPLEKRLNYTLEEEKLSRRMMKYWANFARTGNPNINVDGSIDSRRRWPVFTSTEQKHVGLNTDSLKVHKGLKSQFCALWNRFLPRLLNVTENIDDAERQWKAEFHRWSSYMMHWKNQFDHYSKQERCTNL

Q: Which IC50 does the source give for `C[C@@H]([C@H]1CC[C@@]2(C)[C@@H]3CC[C@H]4C(C)(C)[C@@H](NC(=O)c5ccccc5)CC[C@]4(O)CC3=CC[C@]12C)N(C)C` [N-BENZOYLBUXAHYRCANINE] here?
A: > 1000 µM

Q: Which IC50 does the source give for `CC(C)C(=O)N[C@H]1CC[C@]2(O)CC3=CC[C@]4(C)[C@@H]([C@H](C)N(C)C)CC[C@@]4(C)[C@@H]3CC[C@H]2C1(C)C` [N-ISOBUTYROYLBUXAHYRCANINE] here?
A: > 1000 µM

Q: Which IC50 does the source give for `C/C=C(\C)C(=O)N[C@H]1CC[C@]2(O)CC3=CC[C@]4(C)[C@@H]([C@H](C)N(C)C)CC[C@@]4(C)[C@@H]3CC[C@H]2C1(C)C` [N-TIGLOYLBUXAHYRCANINE] here?
A: 444 µM
